Reference: ChEMBL document CHEMBL4033742, “Novel 3-fluoro-6-methoxyquinoline derivatives as inhibitors of bacterial DNA gyrase and topoisomerase IV” (Bioorg Med Chem Lett, 2017)
≈ marks a conversion by molar mass, not a printed value. Blank lines part the entries; values can stand above or below the compound they belong to.

Assays:
[1] = system: Staphylococcus aureus; assay: Antibacterial activity against Staphylococcus aureus containing DNA gyrase D83N mutations; assay type: functional
[2] = Inhibition of Staphylococcus aureus DNA gyrase
[3] = system: Staphylococcus aureus; assay: Antibacterial activity against fluoroquinolone-sensitive Staphylococcus aureus 1146; assay type: functional
[4] = system: Staphylococcus aureus; assay: Antibacterial activity against fluoroquinolone-resistant Staphylococcus aureus 1095; assay type: functional
[5] = Inhibition of Staphylococcus aureus DNA topoisomerase 4
[6] = system: Cavia porcellus; assay: Cardiotoxicity in anesthetized guinea pig model assessed as prolongation of monophasic action potential duration at fCmax level; assay type: toxicity
[7] = system: Staphylococcus aureus; assay: Antibacterial activity against fluoroquinolone-resistant Staphylococcus aureus infected in mouse neutropenic thigh model assessed as static dose required for bacterial stasis; assay type: functional
[8] = molecular target: Voltage-gated inwardly rectifying potassium channel KCNH2 (Homo sapiens, UniProt Q12809); assay: Inhibition of human ERG
Voltage-gated inwardly rectifying potassium channel KCNH2, sequence (Q12809 whole entry): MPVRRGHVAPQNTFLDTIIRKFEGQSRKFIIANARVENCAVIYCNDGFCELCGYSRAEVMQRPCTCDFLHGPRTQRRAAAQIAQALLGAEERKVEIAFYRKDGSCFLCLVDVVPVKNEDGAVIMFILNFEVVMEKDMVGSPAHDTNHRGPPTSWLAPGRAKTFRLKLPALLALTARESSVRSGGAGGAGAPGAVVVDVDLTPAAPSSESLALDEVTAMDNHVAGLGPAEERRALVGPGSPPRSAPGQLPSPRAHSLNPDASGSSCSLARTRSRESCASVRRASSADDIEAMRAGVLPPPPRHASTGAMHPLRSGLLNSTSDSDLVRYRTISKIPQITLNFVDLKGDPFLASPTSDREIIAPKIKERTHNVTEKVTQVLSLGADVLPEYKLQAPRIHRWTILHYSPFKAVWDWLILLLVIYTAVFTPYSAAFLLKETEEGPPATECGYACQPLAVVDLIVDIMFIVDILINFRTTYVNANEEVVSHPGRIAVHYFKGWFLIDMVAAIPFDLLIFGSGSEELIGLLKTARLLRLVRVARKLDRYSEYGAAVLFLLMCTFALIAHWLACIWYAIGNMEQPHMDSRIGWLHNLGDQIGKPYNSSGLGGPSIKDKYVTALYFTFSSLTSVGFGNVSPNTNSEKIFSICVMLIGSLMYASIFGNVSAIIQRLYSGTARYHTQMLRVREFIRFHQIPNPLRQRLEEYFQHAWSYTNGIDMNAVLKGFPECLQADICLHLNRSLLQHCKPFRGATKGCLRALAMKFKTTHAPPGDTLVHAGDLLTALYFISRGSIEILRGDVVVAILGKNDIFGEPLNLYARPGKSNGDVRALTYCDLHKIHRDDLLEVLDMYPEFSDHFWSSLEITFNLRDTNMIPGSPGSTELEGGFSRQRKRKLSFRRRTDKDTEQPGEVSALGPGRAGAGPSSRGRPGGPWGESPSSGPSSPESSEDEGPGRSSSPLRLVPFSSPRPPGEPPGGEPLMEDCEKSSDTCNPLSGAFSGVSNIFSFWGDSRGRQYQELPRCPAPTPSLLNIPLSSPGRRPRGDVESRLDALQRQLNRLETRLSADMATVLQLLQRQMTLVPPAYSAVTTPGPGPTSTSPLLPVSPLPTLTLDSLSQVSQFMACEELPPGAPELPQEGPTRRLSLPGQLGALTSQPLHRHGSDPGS

[9] = system: Staphylococcus aureus; assay: Antibacterial activity against Staphylococcus aureus containing DNA gyrase M121K mutations; assay type: functional
[10] = Clearance in rat at 2 mg/kg, iv; assay type: ADME, organism-based; conditions: in vivo
[11] = system: Cavia porcellus; assay: Cardiotoxicity in anesthetized guinea pig model assessed as increase in cardiac alternans at fCmax level; assay type: toxicity
[12] = Half life in rat at 2 mg/kg, iv; assay type: ADME, organism-based; conditions: in vivo
[13] = Volume of distribution at steady state in mouse at 10 mg/kg, iv; assay type: ADME, organism-based; conditions: in vivo, read-out: Vdss
[14] = Volume of distribution at steady state in rat at 2 mg/kg, iv; assay type: ADME, organism-based; conditions: in vivo, read-out: Vdss
[15] = system: Staphylococcus aureus; assay: Antibacterial activity against Staphylococcus aureus; assay type: functional
[16] = system: Streptococcus pyogenes; assay: Antibacterial activity against Streptococcus pyogenes; assay type: functional
[17] = Ratio of fAUC in fluoroquinolone-resistant Staphylococcus aureus infected mouse neutropenic thigh model to MIC for fluoroquinolone-resistant Staphylococcus aureus
[18] = Fraction unbound in rat plasma; assay type: ADME, cell-free
[19] = Fraction unbound in mouse plasma; assay type: ADME, cell-free
[20] = Clearance in mouse at 10 mg/kg, iv; assay type: ADME, organism-based; conditions: in vivo
[21] = Half life in mouse at 10 mg/kg, iv; assay type: ADME, organism-based; conditions: in vivo
[22] = system: Cavia porcellus; assay: fCmax in anesthetized guinea pig model; assay type: ADME
[23] = Fraction unbound in human plasma; assay type: ADME, cell-free

SMILES: COc1ccc2ncc(F)c([C@@H](O)CC[C@@H]3CCN(C4CC(c5cncc(F)c5)C4)C[C@@H]3C(=O)O)c2c1 (some centres not stated)
MIC [1]: > 64 µg/mL
IC50 [2]: 4700 nM
MIC [3]: 2 µg/mL (≈ 3.91 µM)
MIC [4]: 32 µg/mL (≈ 62.6 µM)
IC50 [5]: > 120 µM

IC50 [2]: 2930 nM
IC50 [5]: 100 to 120 µM
SMILES: COc1ccc2nccc([C@@H](O)CC[C@@H]3CCN(C4CC(c5c(F)cccc5F)C4)C[C@@H]3C(=O)O)c2c1 (some centres not stated)

SMILES: COc1ccc2ncc(F)c([C@@H](O)CC[C@@H]3CCN(C4CC(c5cc(F)ccc5F)C4)C[C@@H]3C(=O)O)c2c1 (some centres not stated)
Activity [6]: Non-Toxic
Activity [7]: 79.7 to 82.8 mg/kg/day
IC50 [8]: 85.9 µM
MIC [1]: 3.4 µg/mL (≈ 6.43 µM)
MIC [9]: 2 µg/mL (≈ 3.78 µM)
clearance [10]: 30.9 mL/min/kg
Activity [11]: Non-Toxic
IC50 [2]: 977 nM
half-life [12]: 40.8 min
Vd [13]: 1.24 L/kg
Vd [14]: 1.82 L/kg
MIC90 [15]: 0.125 µg/mL (≈ 0.236 µM)
MIC90 [16]: 0.25 to 0.5 µg/mL (≈ 0.473 to 0.946 µM)
MIC [3]: 0.088 µg/mL (≈ 0.166 µM)
Ratio [17]: 39
fraction unbound [18]: 0.197
fraction unbound [19]: 0.201
clearance [20]: 13.7 mL/min/kg
MIC [4]: 0.11 µg/mL (≈ 0.208 µM)
half-life [21]: 63 min
fCmax [22]: 27.5 µM
fraction unbound [23]: 0.054
IC50 [5]: 5.47 µM

SMILES: COc1ccc2ncc(F)c(C[C@H](O)[C@@H]3CC[C@@H](NCc4cc5c(nn4)OCCS5)CO3)c2n1
Ratio [17]: 43

SMILES: COc1ccc2ncc(F)c([C@@H](O)CC[C@@H]3CCN(C4CC(c5ncccc5F)C4)C[C@@H]3C(=O)O)c2c1 (some centres not stated)
IC50 [8]: 10.7 µM
MIC [1]: 32 µg/mL (≈ 62.6 µM)
MIC [9]: 32 µg/mL (≈ 62.6 µM)
IC50 [2]: 6250 nM
MIC90 [15]: 1 µg/mL (≈ 1.95 µM)
MIC90 [16]: 2 µg/mL (≈ 3.91 µM)
MIC [3]: 0.125 µg/mL (≈ 0.244 µM)
MIC [4]: 0.5 µg/mL (≈ 0.977 µM)
IC50 [5]: 30 µM

SMILES: COc1ccc2ncc(F)c([C@@H](O)CC[C@@H]3CCN(C4CC(c5c(F)cccc5F)C4)C[C@@H]3C(=O)O)c2c1 (some centres not stated)
IC50 [8]: 45.3 µM
MIC [1]: 3.2 µg/mL (≈ 6.05 µM)
MIC [9]: 2.8 µg/mL (≈ 5.3 µM)
IC50 [2]: 4610 nM
MIC90 [15]: 0.125 µg/mL (≈ 0.236 µM)
MIC90 [16]: 0.5 µg/mL (≈ 0.946 µM)
MIC [3]: ≤ 0.063 µg/mL
MIC [4]: 0.079 µg/mL (≈ 0.149 µM)
IC50 [5]: 18.3 µM

IC50 [2]: 1560 nM
IC50 [5]: 30.4 µM
SMILES: COc1ccc2ncc(F)c([C@@H](O)CC[C@@H]3CCN(CCSc4cccs4)C[C@@H]3C(=O)O)c2c1

SMILES: N#Cc1ccc2ccc(=O)n(CCN3CC[C@H](NCc4cc5c(cn4)OCCO5)[C@H](F)C3)c2c1
Ratio [17]: 36

SMILES: COc1ccc2ncc(F)c([C@@H](O)CC[C@@H]3CCN(C4CC(c5cc(F)ccc5F)C4)C[C@@H]3C(=O)O)c2n1 (some centres not stated)
Activity [7]: 80.7 mg/kg/day
IC50 [8]: 45 µM
MIC [1]: 2.5 µg/mL (≈ 4.72 µM)
MIC [9]: 2.3 µg/mL (≈ 4.34 µM)
clearance [10]: 32.7 mL/min/kg
IC50 [2]: 1430 nM
half-life [12]: 40.2 min
Vd [13]: 0.825 L/kg
Vd [14]: 1.89 L/kg
MIC90 [15]: 0.125 to 0.25 µg/mL (≈ 0.236 to 0.472 µM)
MIC90 [16]: 0.5 to 1 µg/mL (≈ 0.944 to 1.89 µM)
MIC [3]: ≤ 0.0625 µg/mL
fraction unbound [18]: 0.121 to 0.189
fraction unbound [19]: 0.131 to 0.242
clearance [20]: 34 mL/min/kg
MIC [4]: 0.088 µg/mL (≈ 0.166 µM)
half-life [21]: 16.8 min
fraction unbound [23]: 0.036 to 0.037
IC50 [5]: 5.09 µM

SMILES: COc1ccc2ncc(F)c([C@@H](O)CC[C@@H]3CCN(C4CC(c5ccccn5)C4)C[C@@H]3C(=O)O)c2c1 (some centres not stated)
MIC [1]: > 64 µg/mL
IC50 [2]: 3130 nM
MIC [3]: 1 µg/mL (≈ 2.03 µM)
MIC [4]: 16 µg/mL (≈ 32.4 µM)
IC50 [5]: 50 µM

SMILES: COc1ccc2ncc(F)c([C@@H](O)CC[C@@H]3CCN(C4CC(c5ccno5)C4)C[C@@H]3C(=O)O)c2c1 (some centres not stated)
IC50 [8]: > 300 µM
MIC [1]: > 64 µg/mL
IC50 [2]: 2680 nM
MIC [3]: 0.5 µg/mL (≈ 1.03 µM)
MIC [4]: 4 µg/mL (≈ 8.27 µM)
IC50 [5]: 35.1 µM

SMILES: CN[C@H](CC(C)C)C(=O)N[C@H]1C(=O)N[C@@H](CC(N)=O)C(=O)N[C@H]2C(=O)N[C@H]3C(=O)N[C@H](C(=O)N[C@H](C(=O)O)c4cc(O)cc(O)c4-c4cc3ccc4O)[C@H](O)c3ccc(c(Cl)c3)Oc3cc2cc(c3O[C@@H]2O[C@H](CO)[C@@H](O)[C@H](O)[C@H]2O[C@H]2C[C@](C)(N)[C@H](O)[C@H](C)O2)Oc2ccc(cc2Cl)[C@H]1O [VANCOMYCIN]
Activity [7]: 29 mg/kg/day

SMILES: O=c1ccc2ncc(F)c3c2n1C[C@@]3(O)CN1CCC(NCc2cc3c(cn2)OCCO3)CC1
IC50 [8]: > 300 µM
MIC [1]: 4 µg/mL (≈ 8.56 µM)
MIC [9]: 8 µg/mL (≈ 17.1 µM)
IC50 [2]: 448 nM
MIC90 [15]: 0.5 µg/mL (≈ 1.07 µM)
MIC90 [16]: 0.125 µg/mL (≈ 0.267 µM)
MIC [3]: 0.125 µg/mL (≈ 0.267 µM)
MIC [4]: 0.31 µg/mL (≈ 0.663 µM)
IC50 [5]: 4.96 µM
